Results taken from patent US20190175534A1, “PHARMACEUTICAL COMPOSITIONS COMPRISING DGLA AND USE OF SAME” (DS Biopharma Limited, priority 2016, published 2019).

What was measured:
[1] = Phase 1 multiple-dose skin blister fluid concentrations of free and total DGLA; type: in vivo, human
From the text: The PK of DGLA in human skin following multiple doses of DS107G capsule given once daily for 28 days to healthy subjects.

[2] = Phase 1 multiple-dose (28 days) plasma pharmacokinetics of free and total DGLA, incl. steady state; type: in vivo, human; conditions: for Peak Trough Fluctuation (PTF), free DGLA, mean: steady state Day 28 (0-24 hours); for Peak Trough Fluctuation (PTF), mean (Table 29, total DGLA): steady-state Day 28 (0-24 hours)
Procedure: Multiple dose part two of the study comprised two cohorts (Cohorts five and six) of eight subjects each, who were administered multiple doses of study drug in the fasted state for 28 days. Subjects in Cohorts five and six received DS107G at 2000 or 4000 mg, respectively, or matching placebo once daily for 28 days. Cohort six was started after Cohort five's safety data were evaluated by the SMC. No interim analysis was planned. […]
In Part two of the study (Cohorts five and six), subjects were administered study drug (500-mg DS107G capsules or matching placebo capsules) once daily in the fasted state for 28 days. Subjects in Cohort five received study drug first and, if they tolerated the 2000-mg daily dose for the first 14 days, subjects in Cohort six were started on the 4000-mg daily dose for 28 days.
PK parameter was computed after correcting the dosed DGLA concentrations with baseline DGLA concentrations.

[3] = tested on: spontaneous hypertensive rats; assay: Arterial pressure in spontaneous hypertensive rats after seven days of gavage, with intravenous phenylephrine challenge; type: in vivo, rat; conditions: DGLA 50 or 500 mg/kg alone; effect eliminated by aspirin
Procedure: An in vivo investigation of anti-hypertension efficacy following co-administration of DGLA and aspirin in spontaneous hypertensive rats was conducted. This experiment investigated the efficacy of DGLA when co-administered chronically with aspirin to reduce the hypertensive response induced acutely by phenylephrine in spontaneous hypertensive rats. Spontaneously hypertensive adult male rats (250-300 g), bred by Charles River Laboratories, were used for this assay. […] The animals were pair-housed by group (low dose+aspirin, high dose+aspirin or aspirin alone) for the duration of the oral gavage prior to surgery.
The test article was formulated using olive oil as the vehicle. This stock solution was then administered by oral gavage once per day for seven consecutive days. A low and a high dose (50 mg/kg and 500 mg/kg) were tested.
A 5 mg/ml stock solution of aspirin was prepared by dissolving the appropriate amount of aspirin in 100% DMSO which was then diluted in water. The concentration of DMSO was less than 1%. The appropriate volume was administered by oral gavage to each animal once per day for seven consecutive days. The stock solution was stored at room temperature and was considered stable for the duration of the gavage.
The appropriate volume was administered to each animal by an intravenous injection at the end of the experiment on the surgery day. The stock solution was stored at 4° C. and was considered stable for the duration of the experiment.
Male spontaneous hypertensive rats weighing approximately 300 g arrived at the facility at least two days before beginning the oral gavage. Animals were assigned to one of three groups (low dose+aspirin, high dose+aspirin, and aspirin), and were pair-housed during the acclimation period. […]
Rats were anesthetized with a 2.5-3.0% isoflurane-O2 mixture in an induction box. […] Blood pressure, systemic arterial pressure (SAP), and heart rate were monitored continuously for a total of half an hour. Hypertension was detected as an increase in diastolic, systolic or mean blood pressure. […]

[4] = tested on: healthy male and female subjects; assay: Phase 1 study safety and tolerability (single and multiple dose); conditions: for Tolerability: healthy volunteers
Procedure: Screening procedures were conducted for both parts one and two before the start of the study on Day −1 (Baseline) by evaluating the safety assessments.
Subjects were monitored throughout their confinement at the Phase 1 unit for adverse reactions to the study drug and/or procedures.
Safety analyses were performed on the safety population tabulated by treatment arm, cohort, and visit. All safety data were characterized by descriptive statistical tools. […] Evaluation of safety assessments was performed in a descriptive manner. Continuous variables were characterized by their mean, standard deviation (SD), median, minimum and maximum values; discrete variables were characterized by their absolute (frequency) and relative (percentage) distribution.

[5] = Phase 1 food effect on single-dose plasma pharmacokinetics (1000 mg, fasted vs fed); type: in vivo, human
Procedure: The effect of food on the PK of an orally administered single dose of DS107G capsule in healthy subjects; and
Subjects were randomly assigned in a 3:1 ratio of DG107G to placebo by block randomization. Single dose part one of the study comprised three cohorts of eight subjects each, with the addition of Cohort four based on evaluation of the safety data of Cohort three by the Safety Monitoring Committee (SMC). A single oral dose of DS107G or matching placebo was administered to fasted subjects in Cohorts one to three (500, 1000, and 2000 mg, respectively) in parallel; subjects in Cohort four were administered a dose of 4000 mg following completion of Cohort three. Subjects in Cohort two received 1000 mg or matching placebo in the fed state at ≥14 days after the first dose.
Food effect was evaluated in Cohort two at least 14 days after the first dose at which time a second single dose was administered, Subjects were administered a 1000-mg dose of study drug with 240 mL of water after a 10-hour fasting period and 30 minutes after starting consumption of a meal. Subjects then refrained from food intake for at least 4 hours after dosing, Food consumption was standardized for at least 12 hours after dosing using a standardized high-fat meal (800 to 1000 kcal with 500 to 600 kcal from fat and 250 kcal from carbohydrates). A typical standard test meal consisted of two eggs fried in butter, two strips of bacon, two slices of toast with butter, 120 mL of hash brown potatoes, and 240 mL of whole milk.
Subjects in Cohort two undergoing evaluation of the food effect on oral 1000 mg DGLA capsules were restricted from food consumption for at least 4 hours after dosing. Food consumption was standardized for at least 12 hours post dose using a standardized high-fat meal.

[6] = tested on: patients with moderate to severe atopic dermatitis; assay: Phase II study of oral DS107G: safety; type: in vivo, human; conditions: oral 2 g once daily 8 weeks
From the text: Subjects visited the clinic on 6 occasions: at screening, baseline, week 2, week 4, week 8 (end of treatment/early termination) and week 10 (follow-up). All subjects exited the study at the week 10 visit. The primary efficacy variable was the proportion of patients achieving an IGA of 0 (clear) or 1 (almost clear), and a decrease of at least 2 points in IGA at week 8. Secondary efficacy variables included: IGA at other visits, pruritus (obtained from the SCORAD visual analog scale), EASI, BSA, POEM, DLQI, SCORAD and TEWL (for selected sites only). Safety was assessed through adverse events, physical examination, vital signs and safety laboratory tests (including pregnancy tests for women of childbearing potential), Pharmacokinetic samples were obtained at Baseline (Day 0), week 4 and week 8 visits in order to measure total and free DGLA plasma trough levels. Separate plasma samples were retained for later analysis of total fatty acid profile and interleukin profile.
Laboratory tests were performed at screening, Day 0, Week 4 and Week 8. If Week 8 results indicated a clinically significant change from baseline, laboratory tests were also performed at Week 10. […]
Efficacy was evaluated on the basis of the ITT population and analyses were performed based on the randomized treatment and not on the treatment received. […]

[7] = first value printed for the two dose cohorts (2000 mg assumed)
[8] = second value printed for the two dose cohorts (4000 mg assumed)

SMILES: CCCCC/C=C\C/C=C\C/C=C\CCCCCCC(=O)O [DGLA, Dihomo gamma linolenic acid]
- Mean total DGLA concentration in skin blister fluid, Day 28 over Day 1 ([1]; 2000 mg daily): about 2.5 fold
- Mean total DGLA concentration in skin blister fluid, Day 28 over Day 1 ([1]; 4000 mg daily): ~3 fold
- Increase of mean total DGLA concentrations in skin blister fluid with a doubling in dose ([1]; Days 1, 8, 14 and 28): about 1.4 fold
- Mean free DGLA concentrations in skin blister fluid with a doubling in dose ([1]; Days 1, 8, 14 and 28, 2000 vs 4000 mg daily): approximately doubled
- Mean free DGLA concentration in skin blister fluid, Day 28 over Day 1 ([1]; both 2000 and 4000 mg daily): about 3 fold
- Mean concentrations of free DGLA in plasma versus skin blister fluid ([1]; same dose, Day 8 and Day 14 (but not Day 28)): somewhat similar
- Mean concentrations of total DGLA in plasma versus skin blister fluid ([1]; same dose, after Day 1): much higher in plasma than in skin blister fluid
- Mean accumulation ratio (AR) for AUC, free DGLA ([2]; 2000 mg daily): ~3.3
- Mean accumulation ratio (AR) for Cmax, free DGLA ([2]; 2000 mg daily): ~2.8
- Mean accumulation ratio (AR) for AUC, free DGLA ([2]; 4000 mg daily): ~1.6
- Mean accumulation ratio (AR) for Cmax, free DGLA ([2]; 4000 mg daily): ~1.4
- Time at which plasma concentrations reach steady-state (free and total DGLA) ([2]; 2000 and 4000 mg daily): ~14 days
- Mean baseline-corrected free DGLA AUC0-24, 4000 mg over 2000 mg dose ([2]; Day 1): ~2.5 fold
- Mean baseline-corrected free DGLA Cmax, 4000 mg over 2000 mg dose ([2]; Day 1): ~3 fold
- Mean baseline-corrected total DGLA AUC0-24, 4000 mg over 2000 mg dose ([2]; Day 1): ~1.5 fold
- Mean baseline-corrected total DGLA Cmax, 4000 mg over 2000 mg dose ([2]; Day 1): ~1.5 fold
- Mean baseline-corrected free DGLA AUC0-24, 4000 mg over 2000 mg dose ([2]; Day 28): ~1.7 fold
- Mean baseline-corrected free DGLA Cmax, 4000 mg over 2000 mg dose ([2]; Day 28): ~1.4 fold
- Mean baseline-corrected total DGLA AUC0-24, 4000 mg over 2000 mg dose ([2]; Day 28): ~1.4 fold
- Mean baseline-corrected total DGLA Cmax, 4000 mg over 2000 mg dose ([2]; Day 28): ~1.2 fold
- Time of peak mean concentration of free DGLA after dosing ([2]; Days 1 and 28, 2000 and 4000 mg daily): about 4 hours
- Increase of average concentration at steady state, free DGLA, dose doubled from 2000 to 4000 mg daily ([2]; in vivo): 1.6 fold
- Increase of average concentration at steady state, total DGLA, dose doubled from 2000 to 4000 mg daily ([2]; in vivo): 1.2 fold
- Peak Trough Fluctuation (PTF), free DGLA, mean [2, 7]: ~430%
- Peak Trough Fluctuation (PTF), free DGLA, mean [2, 8]: ~490%
- Peak Trough Fluctuation (PTF), mean (Table 29, total DGLA) [2, 7]: 62.5%
- Peak Trough Fluctuation (PTF), mean (Table 29, total DGLA) [2, 8]: 44.9%
- Effect on arterial pressure in spontaneously hypertensive rats [3]: successfully decreases the arterial pressure
- Tolerability ([4]; 2000- or 4000-mg once daily for 28 consecutive days): tolerated well
- Deaths ([4]; multi-dose study): no deaths
- Severe TEAEs ([4]; multiple dose): no severe TEAEs
- Total number of TEAEs among active-treated subjects ([4]; multiple dose): 52
- Proportion of subjects reporting diarrhea ([4]; multiple dose, 2000-mg group (3/6)): 50%
- Proportion of subjects reporting diarrhea ([4]; multiple dose, 4000-mg group (4/6)): 66.7%
- Subjects reporting nausea ([4]; multiple dose, 4000-mg treatment group (10 events among 4/6)): 66.7%
- Incidence of TEAEs among active-treated subjects ([4]; multiple dose, 11/12 subjects): 91.73%
- Tolerability ([4]; single dose 500, 1000, 2000 or 4000 mg): well tolerated
- Incidence of diarrhea (loose stool), active-treated subjects ([4]; single dose, 5/24 subjects): 20.8%
- Free DGLA Cmax occurred sooner under fasted than fed conditions (median) ([5]; single 1000 mg dose): 1 h
- Mean baseline-corrected free DGLA Cmax, fasted over fed ([5]; single 1000 mg dose): about 3 fold
- Mean baseline-corrected total DGLA AUC0-24, fasted over fed ([5]; single 1000 mg dose): about 1,8 fold
- Mean baseline-corrected total DGLA Cmax, fasted over fed ([5]; single 1000 mg dose): about 1.5 fold
- Mean free DGLA baseline-corrected AUC0-24, fasted over fed ([5]; single 1000 mg dose): about 2 fold
- Mean baseline-corrected AUC0-24, total DGLA over free DGLA ([5]; single 1000 mg dose, fasted): ~54 fold
- Mean baseline-corrected Cmax, total DGLA over free DGLA ([5]; single 1000 mg dose, fasted): ~10 fold
- Mean baseline-corrected AUC0-24, total DGLA over free DGLA ([5]; single 1000 mg dose, fed): ~56 fold
- Mean baseline-corrected Cmax, total DGLA over free DGLA ([5]; single 1000 mg dose, fed): ~20 fold
- Rate and extent of total DGLA absorption (mean Cmax and AUC0-24), fasted higher than fed ([5]; single 1000-mg dose): approximately 50%
- Drug related Serious Adverse Events [6]: no drug related Serious Adverse Events
- Tolerability [6]: very well tolerated
